# In US5955485A, “Use of fused benzothiazoles as neuroprotectants” (Janssen Pharmaceutica, N.V., priority 1995, dated 1999):
# “And” between values parts separate entries of the source, which are not always exact repeats. Identical values can stand only once. Like-named read-outs stand apart in the source and are kept apart here.
# Experiments:
# [1] = test system: Human fibroblasts [strain NS]; test: Protection of human fibroblasts against glutathione depletion (survival in cystine/methionine deficient EMEM, 48 hr); assay type: cell-based; conditions: Fibroblast, read-out: EC90 (concentration at which more than 90% of the fibroblasts survive 48 hours after treatment)
# Procedure: Human fibroblasts [strain NS] were cultured in cystine/methionine deficient EMEM for 48 hr. In control cultures not receiving any treatment, all cells became necrotic. Cell death was scored by phase contrast microscopy. Table 1 summarizes the EC90 values observed with the compounds of formula (I), i.e. the concentration at which more than 90% of the fibroblasts survive 48 hours after treatment with a compound of formula (I).
# [2] = test system: primary neuronal (embryonic hippocampal) cultures; test: Survival-rescue of primary embryonic hippocampal cultures in vitE depleted medium (cytoplasmic LDH activity); assay type: cell-based, rat; conditions: for EC50: Rattus norvegicus, mean ± SD (number of dose responses), 50% of survival in vitE supplemented medium
# Procedure: Primary embryonic hippocampal cultures were prepared essentially as described previously (Pauwels, P, Van Aschouw, H. P., Peeters, L., Moeremans, M., Leysen, J. E. 1992. Chronic treatment with sabeluzole protects cultured rat brain neurons from the neurotoxic effects of excitatory amino acids. Synapse, 12:271-280). Hippocampal formations of rats at embryonic day 17 were dissected and dissociated in 0.05% trypsin, 0.1 mg/ml DNase I in DMEM (Dulbecco Modified Eagle Medium). Heat-inactivated horse serum (HS) was added to a concentration of 4%, and the cells were centrifuged, washed with DMEM, and resuspended in DMEM/Ham's F12 (3:1) containing 10% HS. The cells were plated at a density of 4×10^5 cells/cm^2 in poly L-lysine (0.001%) pre-coated multiwell-24 plates. On day 1 in culture, the medium was changed to chemically defined CDM-R12 medium (DMEM-HEPES/Ham's F12 (3:1) containing 0.26% bovine serum albumin, 30 nM sodium selenite, 3 nM 3,3',5 triiodo-L-thyronine, 0.35 μM retinol, 0.3 μM retinol acetate, 2.3 μM DL-a-tocopherol, 2.1 μM DL-α-tocopherol acetate, […] linolenic acid, 3.6 μM linoleic acid, 0.125% human transferrin, 20 nM progesterone, 57.7 nM corticosterone, 49 U/l insulin, 0.4 μM biotin, 10 μM L-carnitine, 83 μM D(+)-galactose, 3.3 μM glutathione, 10 μM ethanolamine, 0.1 mM putrescine; Romijn, H. J., van Huizen, F., Wolters, P. S. 1984. Towards an improved serum-free, chemically defined medium for long-term culturing of cerebral cortex tissue. Neurosci. Behav. Rev., 8:301-334), either with (control) or without DL-α-tocopherol (VitE) and DL-α-tocopherol acetate, in the presence or absence of test compound. […] Addition of compounds could rescue the cultures. Culture survival was measured by means of cytoplasmic LDH activity. The EC50 for survival-rescue in vitE depleted cultures refers to the concentration of the compound required to restore culture survival to 50% of the survival seen for the culture grown in vitE supplemented medium. Seven concentrations of each compound were tested in triplicate, the number of independent experiments is indicated in the table, and the mean EC50 -value ± SD was calculated (Table 2).
# Primary neuronal cultures depend on the presence of the antioxidant vitE in the culture medium for survival in vitro. When vitE depleted medium is used to grow the cultures, survival drops to ±20% of control. Compounds with antioxidative properties are able to complement the lack of vitE, and as such can when added to the culture medium, rescue vitE devoid cultures. Several derivatives of formula (I) were tested at 10^-7 M and 10^-6 M in the vitE depletion test on primary neuronal cultures, and were all able to rescue survival of vitE depleted cultures to a certain extent (Table 2).
# C6 glioma cells [3] = test: Glutathione depletion-induced intracellular peroxides in C6 glioma cells (C-DCDHF fluorescence); assay type: cell-based; conditions: for Level of intracellular peroxides: 1 μM compound + glutamate 10 mM, n ≥ 3 (Table 5); for Level of intracellular peroxides / Intracellular peroxides: mean ± SEM; for Intracellular peroxides: glutamate 10 mM alone, n = 5 (Table 3)
# Procedure: Fluorescence measurement of intracellular peroxides: Formation of intracellular peroxides was detected using 6-carboxy-2',7'-dichlorodihydrofluorescin diacetate, di(acetoxymethyl ester) (C-DCDHF, Molecular Probes). C-DCDHF was dissolved in DMSO at a concentration of 10 mM and stored at -70° C. under nitrogen. After exposure of the culture to 10 mM glutamate for 14~20 hr, the cells were loaded with 100 μM fluorophore for one hour at 37° C. Medium was aspirated off, PBS was added to the cells, and plates were read in a Cytofluor II micro plate fluorescence reader (PerSeptive Biosystems).Excitation and emission wavelength were selected with a 485/530 nm filter pair. Fluorescence intensity, expressed in relative fluorescence units (rfu)/μg cellular protein was used as index of intracellular peroxides.
# C6 glioma cells [4] = test: Glutathione depletion-induced cell toxicity in C6 glioma cells (LDH release; protection); conditions: for IC50 / cytotoxicity at 10000 µM: C6 glioma; for IC50: read-out: Protection IC50; for cytotoxicity at 10000 µM: Rattus norvegicus
# Procedure: Cultures were maintained at 37° C. in an air/5~10% CO2, water saturated atmosphere.
# After 8-24 hr, the cultures were switched to culture medium in the absence or presence of the GSH depleting compound glutamate (10 mM).
# C6 glioma cells [5] = test: GSH content in C6 glioma cell culture; assay type: cell-based; conditions: for GSH level: mean ± SEM, n = 3
# Excerpt: The GSH content was deduced from a standard curve ranging from 0.2 to 2 nmol commercial GSH per test (ΔA/min plotted versus concentration).
# Plasma levels = assay type: in vivo
Compound,EC90 [1] [µM],EC50 [2] [µM],Level of intracellular peroxides (C6 glioma cells [3]) [rfu/μg protein],IC50 (C6 glioma cells [4]) [µM],also measured
CCCNc1ccc2c(c1)SC1=NCCN12 [Compound 1],40,,,,
CNc1ccc2c(c1)SC1=NCCN12 [Compound 2],200,,,,
c1cc2c(cc1NC1CCCCC1)SC1=NCCN12 [Compound 3],40,0.12 ± 0.071,22 ± 2,0.018 ± 0.003,
c1cc2c(cc1NC1CCCC1)SC1=NCCN12 [Compound 4],40,0.177 ± 0.059,18 ± 2,0.029 ± 0.007,
CC(C)Nc1ccc2c(c1)SC1=NCCN12 [Compound 5],40,,,,
CN(C)c1ccc2c(c1)SC1=NCCN12 [Compound 6],40,,,,
"c1cc2c(cc1NC1CCCCCC1)SC1=NCCN12 [Compound 7, N-cycloheptyl-2,3dihydro-imidazo[2,1-b]benzothiazol-7-amine]",0.32,0.025 ± 0.012,,0.009,"complete rescue of primary neuronal cultures grown in VitE depleted medium (concentration) ([2]; VitE depleted medium): 10^-7 M; potency rank in vitE depletion test ([2]; in words): the most potent compound; antioxidative activity relative to vitE ([2]; vitE depletion test, estimated): about 100 times more potent than vitE; GSH level relative to solvent control (C6 glioma cells [5]; 1 μM compound + glutamate 10 mM, in words): about one third of the solvent control level; GSH level (C6 glioma cells [5]; 1 μM compound + glutamate 10 mM): 242 ± 54 pmol/well; IC50 (C6 glioma cells [3]; individual values of 2 experiments, read-out: Inhibition of intracellular peroxides IC50): 0.028 µM and 0.071 µM; plasma levels upon reiterated or chronic administration (Plasma levels; reiterated or chronic administration, in words): progressively increase until a steady state is reached; period of effective plasma levels (Plasma levels; two doses (b.i.d.)): 24 h; protection from cell death (C6 glioma cells [4]; 1 μM, glutamate 10 mM, in words): fully protected"
CCNc1ccc2c(c1)SC1=NCCN12 [Compound 8],200,,,,
CCC(CC)Nc1ccc2c(c1)SC1=NCCN12 [Compound 9],40,,,,
CCCCNc1ccc2c(c1)SC1=NCCN12 [Compound 10],200,,,,
CCC(C)Nc1ccc2c(c1)SC1=NCCN12 (stereo not shown) [Compound 11],40,0.224,,,
CCCC(C)Nc1ccc2c(c1)SC1=NCCN12 (stereo not shown) [Compound 12],40,0.37 ± 0.169,24 ± 1,0.029 ± 0.014,
CCCCC(C)Nc1ccc2c(c1)SC1=NCCN12 (stereo not shown) [Compound 13],8,0.045,19 ± 1,0.01 ± 0.005,
CC(C)(C)CNc1ccc2c(c1)SC1=NCCN12 [Compound 14],8,,,,
CCCN(CCC)c1ccc2c(c1)SC1=NCCN12 [Compound 15],40,,,,
"CCCCCCNc1ccc2c(c1)SC1=NCCN12 [Compound 16, N-hexyl-2,3-dihydro-imidazo[2,1-b]benzothiazol-7-amine]",1.6,0.041 ± 0.018,21 ± 1,0.005 ± 0.001,
c1cc2c(cc1NC1C3CC4CC(C3)CC1C4)SC1=NCCN12 (stereo not shown) [Compound 17],,0.047 ± 0.019,19 ± 1,0.012 ± 0.002,
Cc1cc(NC2CCCC2)c(C(C)C)c2c1N1CCN=C1S2 [Compound 18],,0.126,19 ± 1,0.025 ± 0.014,
"N[C@@H](CCC(=O)O)C(=O)O [Glutamate, glutamate, reference compound]",,,,,"GSH level (C6 glioma cells [5]; glutamate 10 mM alone): 277 ± 24 pmol/well; GSH level (C6 glioma cells [5]; glutamate 10 mM alone, listed as glutamate): 277 pmol/well; reduction in intracellular GSH level versus control (C6 glioma cells [5]; glutamate 10 mM, 6~7 hr): ~3 fold; increase in toxic intracellular peroxides (C6 glioma cells [3]; glutamate 10 mM): ~3 fold; Intracellular peroxides (C6 glioma cells [3]): 205 ± 35 rfu/μg protein; Intracellular peroxides (C6 glioma cells [3]; listed as glutamate): 205 rfu/μg protein; cytotoxicity at 10000 µM (C6 glioma cells [4]; 48 h, read-out: LDH release, % of total): 78 ± 7%; cytotoxicity at 10000 µM (C6 glioma cells [4]; read-out: cell death): ~78%"
"C[C@]12N[C@H](Cc3ccccc31)c1ccccc12 [MK801, reference compound]",,,,,"prevention of LDH release (C6 glioma cells [4]; NMDA antagonist, data not shown, in words): not prevented"
